From patent US4743619A, “Method of treating hepatitis” (American Home Products Corporation, priority 1986, dated 1988)

Target: T1, polymerase of hepatitis B virus (Hepatitis B virus genotype D subtype ayw, UniProt P03156)
T1 construct: the Dane particles were isolated from HBV-infected human blood; from tissue; host or cells: Dane particles (HBV virions) isolated from HBV-infected human blood
Test: in vitro endogenous DNA polymerase assay (Dane particles, radioactive nucleotide incorporation into viral DNA)
Format: biochemical
Settings: for inhibition at 0.01 µg/mL: 0.01 μg/ml; for inhibition at 0.01 µg/mL / inhibition at 0.1 µg/mL: 37° C., 2 hours, Dane particle DNA polymerase; for inhibition at 0.1 µg/mL: 0.1 μg/ml; for inhibition of the polymerase of hepatitis B virus (in words): according to the endogenous DNA polymerase procedure
Experimental: Ten microliters of Dane particles were incubated at 37° C. for 2 hours in 100 μl containing 0.5% NP40, 0.07% BME, 66 mM Tris HCl (pH 7.6) 27 mM MgCl2, 0.40 mM NH4 Cl, 0.3 mM dATP, dGTP, and dTTP and 4 picomoles α^32 P-dCTP. The appropriate tubes also contained either 0.1 μg/ml or 0.01 μg/ml of the rifamycin derivatives (a), (b), (c), (d), or (e). The quantity of incorporation of radioactive nucleotides into viral DNA was determined by trichloroacetic acid precipitation as described by Landers et al., J. Virol. 23: 368-376, 1977. The control DNA polymerase reaction contained more than 20,000 cpm.

T1 sequence (P03156 whole entry): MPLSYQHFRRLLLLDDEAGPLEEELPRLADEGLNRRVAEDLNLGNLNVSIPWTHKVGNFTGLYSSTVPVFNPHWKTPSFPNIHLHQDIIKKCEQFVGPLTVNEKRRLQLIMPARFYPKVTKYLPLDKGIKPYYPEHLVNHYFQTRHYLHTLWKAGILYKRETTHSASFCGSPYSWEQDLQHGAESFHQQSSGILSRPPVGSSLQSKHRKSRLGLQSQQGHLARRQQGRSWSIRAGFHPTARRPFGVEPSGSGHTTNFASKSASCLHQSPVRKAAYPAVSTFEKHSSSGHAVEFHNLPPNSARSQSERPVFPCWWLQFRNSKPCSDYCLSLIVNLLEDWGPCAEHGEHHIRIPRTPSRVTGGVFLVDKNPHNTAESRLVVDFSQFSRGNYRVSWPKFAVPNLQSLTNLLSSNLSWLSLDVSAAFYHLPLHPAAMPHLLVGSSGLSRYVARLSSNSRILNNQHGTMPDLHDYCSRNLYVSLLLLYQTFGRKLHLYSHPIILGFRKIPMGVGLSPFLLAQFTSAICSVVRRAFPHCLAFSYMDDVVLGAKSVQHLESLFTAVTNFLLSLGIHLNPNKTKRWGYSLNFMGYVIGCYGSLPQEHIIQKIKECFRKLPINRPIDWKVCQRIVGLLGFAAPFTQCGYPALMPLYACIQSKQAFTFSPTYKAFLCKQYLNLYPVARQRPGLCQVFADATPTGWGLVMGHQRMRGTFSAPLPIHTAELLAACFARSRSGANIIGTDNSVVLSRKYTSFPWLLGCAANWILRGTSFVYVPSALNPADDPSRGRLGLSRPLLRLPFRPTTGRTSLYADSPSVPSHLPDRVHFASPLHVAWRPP

Row | SMILES | inhibition at 0.01 µg/mL | inhibition at 0.1 µg/mL | inhibition of the polymerase of hepatitis B virus (in words)
1 | CO[C@H]1/C=C/O[C@@]2(C)Oc3c(C)c(O)c4c(O)c(c(N)c(NS(=O)(=O)c5ccc(N)cc5)c4c3C2=O)NC(=O)/C(C)=C\C=C\[C@H](C)[C@H](O)[C@@H](C)[C@@H](O)[C@@H](C)[C@H](OC(C)=O)[C@@H]1C [(b), 3-amino-4-deoxo-4-[(4-aminophenyl)sulfonyl]amino-rifamycin SV] | 10% | 89% | inhibit the polymerase of hepatitis B virus
2 | CCCCS(=O)(=O)Oc1c(C=NN2CCCCC2)c2c(O)c3c(O)c(C)c4c(c13)C(=O)[C@@](C)(O/C=C/[C@H](OC)[C@@H](C)[C@@H](OC(C)=O)[C@H](C)[C@H](O)[C@H](C)[C@@H](O)[C@@H](C)/C=C/C=C(/C)C(=O)N2)O4 [(c), 4-O-(n-butylsulfonyl)-3-[(1-piperidinylimino)methyl]-rifamycin SV] | 8.3% | 55.7% | inhibit the polymerase of hepatitis B virus
3 | CO[C@H]1/C=C/O[C@@]2(C)Oc3c(C)c(O)c4c(O)c(c(C=NN(C)C)c(OS(=O)(=O)CCCc5ccccc5)c4c3C2=O)NC(=O)/C(C)=C\C=C\[C@H](C)[C@H](O)[C@@H](C)[C@@H](O)[C@@H](C)[C@H](OC(C)=O)[C@@H]1C [(e), 3-[(dimethylhydrazono)methyl]-4-O-[(3-phenylpropyl)sulfonyl]-rifamycin SV] | 25.1% | 85.6% | inhibit the polymerase of hepatitis B virus
4 | CO[C@H]1/C=C/O[C@@]2(C)Oc3c(C)c(O)c4c(c3C2=O)C(=N)C(N)=C(NC(=O)/C(C)=C\C=C\[C@H](C)[C@H](O)[C@@H](C)[C@@H](O)[C@@H](C)[C@H](OC(C)=O)[C@@H]1C)C4=O [(a), 3-amino-4-deoxo-4-imino-rifamycin S] | 17.2% | 54.1% | –
5 | CCCCS(=O)(=O)Oc1c(C=NN2CCOCC2)c2c(O)c3c(O)c(C)c4c(c13)C(=O)[C@@](C)(O/C=C/[C@H](OC)[C@@H](C)[C@@H](OC(C)=O)[C@H](C)[C@H](O)[C@H](C)[C@@H](O)[C@@H](C)/C=C/C=C(/C)C(=O)N2)O4 [(d), 4-O-(n-butylsulfonyl)-3-[(4-morpholinylimino)methyl]-rifamycin SV] | 10.2% | 92.5% | inhibit the polymerase of hepatitis B virus
6 | COC1C=COC2(C)Oc3c(C)c(O)c4c(O)c(c5c(c4c3C2=O)N(S(C)(=O)=O)C(C)N5)NC(=O)C(C)=CC=CC(C)C(O)C(C)C(O)C(C)C(OC(C)=O)C1C (centres unmarked) [(f), 4-deoxo-N,3-ethylidenimino-4-(methylsulfonyl)amino rifamycin SV] | 23.8% | 84.6% | inhibit the polymerase of hepatitis B virus
